Assay results from PMC4224565 (Molecular Pharmaceutics, 2014).

Legend:
[1] = tested on: INS-1 tumor mice; experiment: Ex vivo biodistribution in INS-1 tumor mice; parameters: species or system mouse; conditions: control group, dissected tissue, γ-counter, 2 h post injection, n = 5, mean ± SD
[2] = tested on: dipeptidyl-peptidase-IV; conditions: degraded by dipeptidyl-peptidase-IV via cleavage of two N-terminal residues; cited from earlier work

Molecule	INS-1 tumor uptake (biodistribution) [1]	half-life in vivo [2]
O=C(NCCN1C(=O)C=CC1=O)c1ccc(F)nc1 [[^18F]FNEM, N-(2-(2,5-Dioxo-2,5-dihydro-1H-pyrrol-1-yl)ethyl)-6-fluoronicotinamide]	23.06 ± 3.87%ID/g	
GLP-1: glucose-dependent hormone released mainly from the small intestine		less than 2 min
